From patent publication US20230190704A1, “DRUG DELIVERY SYSTEM BASED ON CALCIUM PHOSPHATE NANOPARTICLES FUNCTIONALIZED WITH BIOACTIVE COMPOUNDS FROM EUPHORBIA EXTRACT AND THE USES THEREOF” (CELLBITEC, S.L., priority 2020, published 2023)
Values after ≈ are worked out from the molar mass of the structure shown.

Assays:
[1] = system: T84 human colon adenocarcinoma cell line; assay: Antiproliferative SRB assay of nanoparticles and isolated compounds in T84 cells; format: cell-based; settings: T84, isolated compound, 72 h
Description: The human colon adenocarcinoma cell line T84was purchased from the American Type Culture Collection (Rockville, MD, USA). The non-tumor colon cell line CCD18 (human colon epithelial cell line) was used as control. All cell lines were grown in Dulbecco’s Modified Eagle’s Medium (DMEM) supplemented with 10% heat-inactivated fetal bovine serum (FBS) and ATB (antibiotic, streptomycin + amphotericin B) at 1% and maintained in an incubator at 37° C. and 5% CO2 humidified atmosphere.
Cells were seeded in 48-well plates with DMEM (Dulbecco’s modified Eagles Medium) (300 ul) at a density of 4 x 10^3 cells/well in CCD18 and 5 x 10^3 cells/well in T84. After 24 hours, cell cultures were exposed 72 h to increasing concentrations of the nanoparticles dissolved in DMEM. In addition, bioactive components of the extract, Esculetin (range from 0.1 µg/ml to 5 µg/ml) and Euphorbetin (range from 0.02 µg/ml to 0.7 µg/ml), were combined at different concentration in order to determine their antitumor activity and to compare with nanoparticle activity and ethanolic extract activity. After incubation time, cells were fixed with trichloroacetic acid (TCA) at 10% for 20 minutes at 4° C. […] Finally, the optical density (OD) at 492 nm was measured in a spectrophotometer. Cell survival (%) was calculated according to the following equation: […]

[2] = system: 15 in vitro models with tumor cells; settings: 15 in vitro tumor cell models; read-out: inhibitory dose 50 (IC50); cited from earlier work

Row | SMILES | IC50 [1] | IC50 [2]
1 | O=c1ccc2cc(O)c(O)cc2o1 [Esculetin, esculetin] | 0.27 µg/mL (≈ 1.52 µM) | 
2 | CC(C)=CCC[C@@H](C)[C@@H]1CC[C@]2(C)C3=C(CC[C@@]12C)[C@@]1(C)CC[C@H](O)C(C)(C)[C@@H]1CC3 [Euphol] |  | 2 to 30 µM
